The values that follow come from ChEMBL document CHEMBL5360653, “Marine Alkaloid Lepadins E and H Induce Ferroptosis for Cancer Chemotherapy” (J Med Chem, 2023).

Activity calls are given as the source filed them. The rule behind the calls is not given here.

The test system of data set [1] is HeLa. Briefly: Induction of ferroptosis in human HeLa cells assessed as reduction of mitochondrion volume measured at 6 uM for 24 hrs by transmission electron microscopic analysis. Format: functional, cell-based.
Data set [2] can be described thus: Toxicity in immunocompetent C57BL/6J mouse allografted with B16-F10 cells assessed as tissue damage in liver administered at 30 mg/kg, ip daily for 14 days by hematoxylin and eosin staining analysis. It is filed as organism-based. Particulars: in vivo, 336 h, time 14 day.
For data set [3], the system named is B16-F10. Put plainly: Induction of ferroptosis in mouse B16-F10 cells assessed as cell viability in presence of liproxstatin-1 at 10 uM. Format: functional, cell-based.
Data set [4] has as its system HeLa. Put plainly: Induction of apoptosis in human HeLa cells assessed as late apoptotic cells incubated at 8 uM for 24 hrs measured by annexin V-PI staining based FITC analysis (reference value: 1.81%). Format: functional.
Data set [5] has as its system HeLa. Put plainly: Induction of ROS generation in human HeLa cells assessed as increase in ROS level at 10 uM incubated for 0.5 hrs (reference value: 39.6%). It is filed as functional.
The nature of data set [6]: Toxicity in immunocompetent C57BL/6J mouse allografted with B16-F10 cells assessed as change of organ index in lungs administered at 30 mg/kg, ip daily for 14 days by hematoxylin and eosin staining analysis. Format: organism-based. Conditions: in vivo, 336 h, time 14 day.
In data set [7] the test system is HeLa. Briefly: Induction of apoptosis in human HeLa cells assessed as early apoptotic cells incubated at 10 uM for 24 hrs measured by annexin V-PI staining based FITC analysis (reference value: 3.59%). Format: functional.
For data set [8], the system named is B16-F10. Briefly: Induction of ferroptosis in mouse B16-F10 cells assessed as cell viability in presence of DFO at 10 uM. It is filed as functional, cell-based.
The test system of data set [9] is HeLa. Put plainly: Induction of ROS generation in human HeLa cells assessed as increase in ROS level at 20 uM incubated for 0.5 hrs (reference value: 39.6%). Format: functional.
The test system of data set [10] is B16-F10. Briefly: Induction of ferroptosis in mouse B16-F10 cells assessed as downregulation of GPX4 level measured at 4 to 10 uM by Western blotting analysis. Format: functional, cell-based. Conditions: dose 4-10 µM. On the technique in general: In western blotting, separated proteins are transferred to a membrane and probed.
Data set [11] in a line: Toxicity in immunocompetent C57BL/6J mouse allografted with B16-F10 cells assessed as change of organ index in thymus administered at 30 mg/kg, ip daily for 14 days by hematoxylin and eosin staining analysis. Format: organism-based. Particulars: in vivo, 336 h, time 14 day.
Data set [12] can be described thus: Toxicity in immunocompetent C57BL/6J mouse allografted with B16-F10 cells assessed as change in body weight administered at 30 mg/kg, ip daily for 14 days measured every 3 days. It is filed as organism-based. Particulars: in vivo, 336 h, time 14 day.
The nature of data set [13]: Toxicity in immunocompetent C57BL/6J mouse allografted with B16-F10 cells assessed as tissue damage in spleen administered at 30 mg/kg, ip daily for 14 days by hematoxylin and eosin staining analysis. Format: organism-based. Particulars: in vivo, 336 h, time 14 day.
In data set [14] the test system is HeLa. Put plainly: Induction of ferroptosis in human HeLa cells assessed as increase in density of mitochondrial membrane measured at 6 uM for 24 hrs by transmission electron microscopic analysis. Format: functional, cell-based.
Data set [15] is described as follows: Toxicity in immunocompetent C57BL/6J mouse allografted with B16-F10 cells assessed as tissue damage in thymus administered at 30 mg/kg, ip daily for 14 days by hematoxylin and eosin staining analysis. It is filed as organism-based. Particulars: in vivo, 336 h, time 14 day.
The test system of data set [16] is HeLa. Briefly: Induction of ferroptosis in human HeLa cells assessed as increase of ACSL4 level measured at 4 to 10 uM for 24 hrs by Western blotting analysis. Format: functional, cell-based. Particulars: dose 4-10 µM.
The test system of data set [17] is HeLa. Put plainly: Induction of apoptosis in human HeLa cells assessed as necrotic cells incubated at 10 uM for 24 hrs measured by annexin V-PI staining based FITC analysis (reference value: 0.79%). Format: functional.
Data set [18] relates to B16-F10. Briefly: Antitumor activity against mouse B16-F10 cells allografted in immunocompetent C57BL/6J mouse assessed as reduction of tumor growth administered at 30 mg/kg, ip daily for 14 days (reference value: 1500 mm^3). It is filed as functional. Particulars: time 14 day.
The test system of data set [19] is HeLa. Put plainly: Induction of apoptosis in human HeLa cells assessed as late apoptotic cells incubated at 4 uM for 24 hrs measured by annexin V-PI staining based FITC analysis (reference value: 1.81%). It is filed as functional.
The subject of data set [20] is HeLa. Put plainly: Induction of apoptosis in human HeLa cells assessed as late apoptotic cells incubated at 10 uM for 24 hrs measured by annexin V-PI staining based FITC analysis (reference value: 1.81%). Format: functional.
For data set [21], the system named is HeLa. Briefly: Induction of apoptosis in human HeLa cells assessed as late apoptotic cells incubated at 6 uM for 24 hrs measured by annexin V-PI staining based FITC analysis (reference value: 1.54%). Format: functional.
The test system of data set [22] is HeLa. Put plainly: Induction of apoptosis in human HeLa cells assessed as necrotic cells preincubated with PFTalpha followed by compound addition at 10 uM for 24 hrs measured by annexin V-PI staining based FITC analysis (reference value: 1.6%). It is filed as functional.
Data set [23] has as its system HeLa. Put plainly: Induction of apoptosis in human HeLa cells assessed as necrotic cells incubated at 10 uM for 24 hrs measured by annexin V-PI staining based FITC analysis (reference value: 0.58%). It is filed as functional.
For data set [24], the system named is HeLa. Briefly: Induction of apoptosis in human HeLa cells assessed as viable cells preincubated with PFTalpha followed by compound addition at 10 uM for 24 hrs measured by annexin V-PI staining based FITC analysis (reference value: 91.6%). Format: functional. Particulars: read-out: Activity.
Data set [25] deals with HeLa. Put plainly: Induction of apoptosis in human HeLa cells assessed as late apoptotic cells preincubated with PFTalpha followed by compound addition at 10 uM for 24 hrs measured by annexin V-PI staining based FITC analysis (reference value: 3.45%). It is filed as functional.
For data set [26], the system named is HeLa. Briefly: Induction of apoptosis in human HeLa cells assessed as early apoptotic cells incubated at 6 uM for 24 hrs measured by annexin V-PI staining based FITC analysis (reference value: 3.94%). It is filed as functional.
The test system of data set [27] is HeLa. Put plainly: Induction of apoptosis in human HeLa cells assessed as late apoptotic cells incubated at 8 uM for 24 hrs measured by annexin V-PI staining based FITC analysis (reference value: 1.54%). Format: functional.
Data set [28] concerns HeLa. Briefly: Induction of ROS generation in human HeLa cells assessed as increase in ROS level at 10 uM incubated for 1 hrs (reference value: 37.8%). It is filed as functional.
The subject of data set [29] is HeLa. Put plainly: Induction of apoptosis in human HeLa cells assessed as late apoptotic cells incubated at 4 uM for 24 hrs measured by annexin V-PI staining based FITC analysis (reference value: 1.54%). It is filed as functional.
For data set [30], the system named is HeLa. Briefly: Induction of apoptosis in human HeLa cells assessed as necrotic cells incubated at 6 uM for 24 hrs measured by annexin V-PI staining based FITC analysis (reference value: 0.58%). Format: functional.

Turning to `CCC/C=C/C=C/C(=O)O[C@@H]1C[C@H]2[C@@H](CCCC[C@H](O)CCC)CCC[C@H]2N[C@H]1C`, the result in data set [1], in data set [3], in data set [8], in [10], in [14] and in data set [16] was Active. In addition, the Activity result in [2] is given as “Non-Toxic”; in [4], 2.28%; in [5] it was 77.7%; in data set [6], “Non-Toxic”; in data set [7], 66.3%; in data set [9], 84.4%. Moreover, the Activity result in [11] is “Non-Toxic”; in data set [12] it was “Non-Toxic”; in data set [13], “Non-Toxic”; in [15], “Non-Toxic”; in [17] it was 2.34%; in [18] it was below 500 mm3. The Activity is listed as 2.52% in [19] and 5.53% in data set [20].

As to `CCCCC/C=C/C(=O)O[C@@H]1C[C@H]2[C@@H](CCCC[C@H](O)CCC)CCC[C@H]2N[C@H]1C`, the Activity in data set [21] is on record as 3.62%; in data set [22] it was 4.34%; in data set [23] it was 4.68%; in [25] it was 26.9%; in data set [26], 30.6%; in data set [27] it was 23.7%. The values for the Activity in data set [28], in [29] and in data set [30] were 62.3%, 2.73% and 0.85%, respectively. Besides, in data set [24], the viability at 10 µM is 36.4%.
